≈ marks a conversion by molar mass, not a printed value. Read-outs that look alike come from different tables or passages of the source.
Assays:
[1] = from bulbs of Z. candida; cited from earlier work
[2] = tested on: five human cancer cell lines; experiment: MTT cytotoxicity assay, panel statement over the five cancer cell lines; format: cell-based; details: for selectivity index compared to the Beas-2B cell line: cancer cell lines versus Beas-2B
[3] = as above; format: cell-based, human; details: human
[4] = comparison in words, Table S1 not available

| Structure (SMILES) | IC50 at 48 h [3] | also measured |
| --- | --- | --- |
| O=C1N[C@H]2[C@H](O)[C@H](O)[C@@H](O)C[C@@H]2c2cc3c(c(O)c21)OCO3 (relative stereo) [trans-dihydronarciclasine] |  | IC50 as cytostatic agent [1]: 3.2 ng/mL (≈ 0.0103 µM) |
| CO[C@@H]1C=C[C@@]23c4cc5c(cc4C(O)[N+](C)(C[C@@H]2O)[C@H]3C1)OCO5.[Cl-] (stereo partly drawn) [Compound 1, N-methylhaemanthidine chloride] | 0.81 to 13 µM | selectivity index compared to the Beas-2B cell line [2]: ≤ 10; cytotoxicity compared with positive control cis-platin [2, 4]: more potent cytotoxicity than one of the positive controls (cis-platin) |
| CO[C@@H]1C=C[C@@]23c4cc5c(cc4CN(C[C@@H]2O)[C@H]3C1)OCO5 [Compound 2, haemanthamin] | 0.81 to 13 µM | selectivity index compared to the Beas-2B cell line [2]: ≤ 10; cytotoxicity compared with positive control cis-platin [2, 4]: more potent cytotoxicity than one of the positive controls (cis-platin) |
| CO[C@@H]1C=C[C@@]23c4cc5c(cc4C(=O)O[C@H]2CN(C)[C@H]3C1)OCO5 [Compound 3, 3-epimacronine] | > 10 µM |  |
| CO[C@@H]1C=C[C@@]23c4cc5c(cc4CO[C@]2(O)CN(C)[C@H]3C1)OCO5 [Compound 4, (+)-tazettine] | > 10 µM |  |
| CO[C@H]1C=C[C@@]23c4cc5c(cc4CN(C)[C@@H]2C(=O)N(C)[C@H]3C1)OCO5 [Compound 5, N-methyl-5,6-dihydroplicane] | > 10 µM |  |
| COc1cc2c(c(OC)c1OC)[C@@H](OC)O[C@@H]1CC=C3CCN(C)[C@H]3[C@H]21 [Compound 6, O-methylnerinine] | > 10 µM |  |
| CCOC(=O)CCn1c(=O)c2cc3c(cc2c2ccccc21)OCO3 [Compound 7, N-ethoxycarbonylethylcrinasiadine] | > 10 µM |  |
| CCOC(=O)CCCn1c(=O)c2cc3c(cc2c2ccccc21)OCO3 [Compound 8, N-ethoxycarbonylpropylcrinasiadine] | > 10 µM |  |
| O=c1c2cc3c(cc2c2ccccc2n1CCc1ccccc1)OCO3 [Compound 9, N-phenethylcrinasiadine] | 0.81 to 13 µM | cytotoxicity compared with positive control cis-platin [2]: more potent cytotoxicity than one of the positive controls (cis-platin); selectivity index compared to the Beas-2B cell line [2]: ≤ 10 |
| CC(C)CCn1c(=O)c2cc3c(cc2c2ccccc21)OCO3 [Compound 10, N-isopentylcrinasiadine] | > 10 µM |  |
| Cn1c(=O)c2cc3c(cc2c2ccccc21)OCO3 [Compound 11, N-methylcrinasiadine] | > 10 µM |  |
| c1ccc2c(c1)ncc1cc3c(cc12)OCO3 [Compound 12, trisphaeridine] | > 10 µM |  |
| CN1Cc2cc3c(cc2-c2ccccc21)OCO3 [Compound 13, 5,6-dihydrobicolorine] | > 10 µM |  |
| O[C@H]1[C@H]2c3cc4c(cc3CN3CCC(=C[C@@H]1O)[C@H]23)OCO4 [Compound 14, lycorine] | 0.81 to 13 µM | selectivity index compared to the Beas-2B cell line [2]: ≤ 10; cytotoxicity compared with positive control cis-platin [2, 4]: more potent cytotoxicity than one of the positive controls (cis-platin) |
| C/C=C/C=C/C(=O)N1C[C@H](C)NC[C@H]1C [Compound 15, nigragillin] | > 10 µM |  |

Source: paper PMC3580115 (Journal of natural products, 2012)
